Data: ChEMBL document CHEMBL1201862, “PubChem BioAssay data set” (2004)
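Step 1: Grow cells in 96-well plates. Step 2: Expose to compound for 48 hours at 5 concentrations. Step 3: Interpolate endpoints linearly; if unreached, use highest concentration. The concentration for 50% growth inhibition is given as GI50.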 Calls of active or inactive are those of the source. No stated cut-off is given here; in the data, active = GI50 up to about 1.1 µM and inactive = higher.

Legend:
Experiment in all cases: inhibition of tumour cell growth, NCI panel, 48 h
HT-29 = test system: HT-29
HCT-15 = test system: HCT-15
CAKI-1 = test system: CAKI-1
M14 = test system: M14
MCF7 = test system: MCF7
NCI-H460 = test system: NCI-H460
COLO 205 = test system: COLO 205
NCI-H226 = test system: NCI-H226
SF-295 = test system: SF-295
KM12 = test system: KM12
RXF 393 = test system: RXF 393
SK-MEL-5 = test system: SK-MEL-5
HOP-92 = test system: HOP-92
SK-MEL-28 = test system: SK-MEL-28
UACC-257 = test system: UACC-257
A549 = test system: A549
HCT-116 = test system: HCT-116
NCI/ADR-RES = test system: NCI/ADR-RES
OVCAR-3 = test system: OVCAR-3
NCI-H522 = test system: NCI-H522

For `Oc1ccc(Cl)cc1C1=NC(NCN2CCN(CNC3=NC(c4ccccc4)CC(c4cc(Cl)ccc4O)=N3)CC2)=NC(c2ccccc2)C1` (stereo not given), the GI50 (HT-29) was 36.5 µM (inactive), the GI50 (HCT-15) was 24.4 µM and the GI50 (CAKI-1) was 29.5 µM (inactive). For the same compound, the GI50 (M14) was 58.6 µM (inactive), the GI50 (MCF7) was 9.08 µM (inactive) and the GI50 (NCI-H460) was 35.2 µM (inactive). For the same compound, the GI50 (COLO 205) was 47.4 µM (inactive), the GI50 (NCI-H226) was 53.8 µM (inactive) and the GI50 (SF-295) was 32.3 µM (inactive). For the same compound, the GI50 (KM12) was 37.1 µM (inactive), the GI50 (RXF 393) was 22 µM (inactive) and the GI50 (SK-MEL-5) was 93.5 µM (inactive). For the same compound, the GI50 (HOP-92) was 58.2 µM (inactive), the GI50 (SK-MEL-28) was > 100 µM (inactive) and the GI50 (UACC-257) was > 100 µM (inactive). For the same compound, the GI50 (A549) was 36.1 µM (inactive), the GI50 (HCT-116) was 20.4 µM (inactive) and the GI50 (NCI/ADR-RES) was 38.4 µM (inactive). For the same compound, the GI50 (OVCAR-3) was 28.8 µM (inactive).
For `O=C1c2ccccc2-n2c1nc1ccc(Cl)cc1c2=O`, the GI50 (HT-29) was > 100 µM (inactive), the GI50 (HCT-15) was 56.1 µM and the GI50 (CAKI-1) was 33 µM (inactive). For the same compound, the GI50 (M14) was > 100 µM (inactive), the GI50 (MCF7) was 83.9 µM (inactive) and the GI50 (NCI-H460) was > 100 µM (inactive). For the same compound, the GI50 (COLO 205) was > 100 µM (inactive), the GI50 (NCI-H226) was > 100 µM (inactive) and the GI50 (SF-295) was 42.3 µM (inactive). The GI50 (KM12) was > 100 µM (inactive), the GI50 (RXF 393) was 3.48 µM (inactive) and the GI50 (SK-MEL-5) was > 100 µM (inactive). For the same compound, the GI50 (HOP-92) was 45.3 µM (inactive), the GI50 (UACC-257) was 42.1 µM (inactive) and the GI50 (A549) was 26.1 µM (inactive). For the same compound, the GI50 (HCT-116) was 71.4 µM (inactive), the GI50 (NCI/ADR-RES) was > 100 µM (inactive) and the GI50 (OVCAR-3) was > 100 µM (inactive).
In the case of `CN(C)C(=O)C(F)(F)C(c1ccc(C(F)(F)F)cc1)C1C(=O)N(C)C(=O)N(C)C1=O` (stereo not given), the GI50 (HCT-15) is reported as over 100 µM, the GI50 (CAKI-1) is reported as > 100 µM (inactive) and the GI50 (M14) is reported as > 100 µM (inactive). The GI50 (MCF7) was > 100 µM (inactive), the GI50 (NCI-H460) was > 100 µM (inactive) and the GI50 (COLO 205) was > 100 µM (inactive). The GI50 (NCI-H226) was > 100 µM (inactive), the GI50 (SF-295) was > 100 µM (inactive) and the GI50 (KM12) was > 100 µM (inactive). The GI50 (RXF 393) was 78.3 µM (inactive), the GI50 (SK-MEL-5) was > 100 µM (inactive) and the GI50 (HOP-92) was > 100 µM (inactive). For the same compound, the GI50 (SK-MEL-28) was > 100 µM (inactive), the GI50 (UACC-257) was > 100 µM (inactive) and the GI50 (A549) was > 100 µM (inactive). For the same compound, the GI50 (HCT-116) was > 100 µM (inactive), the GI50 (NCI/ADR-RES) was > 100 µM (inactive) and the GI50 (OVCAR-3) was > 100 µM (inactive).
For `O=C(N/N=C/c1ccc(Cl)cc1)c1ccccc1Nc1ccccc1C(=O)N/N=C/c1ccc(Cl)cc1`, the GI50 (HT-29) was > 100 µM (inactive), the GI50 (HCT-15) was over 100 µM and the GI50 (CAKI-1) was > 100 µM (inactive). The GI50 (M14) was 33 µM (inactive), the GI50 (MCF7) was > 100 µM (inactive) and the GI50 (NCI-H460) was > 100 µM (inactive). The GI50 (COLO 205) was > 100 µM (inactive), the GI50 (NCI-H226) was > 100 µM (inactive) and the GI50 (SF-295) was 54 µM (inactive). For the same compound, the GI50 (KM12) was > 100 µM (inactive), the GI50 (RXF 393) was > 100 µM (inactive) and the GI50 (SK-MEL-5) was > 100 µM (inactive). For the same compound, the GI50 (HOP-92) was > 100 µM (inactive), the GI50 (SK-MEL-28) was > 100 µM (inactive) and the GI50 (UACC-257) was > 100 µM (inactive). For the same compound, the GI50 (A549) was 88.7 µM (inactive), the GI50 (HCT-116) was > 100 µM (inactive) and the GI50 (NCI/ADR-RES) was > 100 µM (inactive). The GI50 (OVCAR-3) was > 100 µM (inactive).
In the case of `COc1ccc2nc3ccc(OC)cc3c(SCC3CO3)c2c1` (stereo not given), the GI50 (HCT-15) is reported as 15.6 µM, the GI50 (CAKI-1) is reported as 5.79 µM (inactive) and the GI50 (M14) is reported as 14.4 µM (inactive). The GI50 (MCF7) was 11.2 µM (inactive), the GI50 (NCI-H460) was 12 µM (inactive) and the GI50 (NCI-H522) was 13 µM (inactive). The GI50 (COLO 205) was 19 µM (inactive), the GI50 (NCI-H226) was 34.4 µM (inactive) and the GI50 (SF-295) was 60.7 µM (inactive). The GI50 (KM12) was 16.1 µM (inactive), the GI50 (RXF 393) was 15.8 µM (inactive) and the GI50 (SK-MEL-5) was 15.8 µM (inactive). The GI50 (SK-MEL-28) was 17.7 µM (inactive), the GI50 (UACC-257) was 15.5 µM (inactive) and the GI50 (A549) was 24.2 µM (inactive). For the same compound, the GI50 (HCT-116) was 10.5 µM (inactive), the GI50 (NCI/ADR-RES) was 17.1 µM (inactive) and the GI50 (OVCAR-3) was 14.9 µM (inactive).
For `CN1CCC/C1=C1/C(=O)N(c2ccccc2)N=C1c1ccc[nH]1`, the GI50 (HCT-15) was over 100 µM, the GI50 (CAKI-1) was > 100 µM (inactive) and the GI50 (M14) was > 100 µM (inactive). For the same compound, the GI50 (MCF7) was > 100 µM (inactive), the GI50 (NCI-H460) was > 100 µM (inactive) and the GI50 (NCI-H522) was > 100 µM (inactive). For the same compound, the GI50 (COLO 205) was > 100 µM (inactive), the GI50 (NCI-H226) was > 100 µM (inactive) and the GI50 (SF-295) was > 100 µM (inactive). For the same compound, the GI50 (KM12) was > 100 µM (inactive), the GI50 (RXF 393) was > 100 µM (inactive) and the GI50 (SK-MEL-5) was > 100 µM (inactive). For the same compound, the GI50 (SK-MEL-28) was > 100 µM (inactive), the GI50 (UACC-257) was > 100 µM (inactive) and the GI50 (A549) was > 100 µM (inactive). The GI50 (HCT-116) was > 100 µM (inactive), the GI50 (NCI/ADR-RES) was > 100 µM (inactive) and the GI50 (OVCAR-3) was > 100 µM (inactive).
